Experimental findings from US11820973B2, “Methods and system for interfering with viability of bacteria and related compounds and compositions” (CALIFORNIA INSTITUTE OF TECHNOLOGY, priority 2011, dated 2023) are described below.

“Also recorded” adds a separate entry of the source.

The test system of experiment [1] is P. aeruginosa PA14 biofilm. Kind of experiment: MBEC assay, anaerobic biofilm prevention. The experiment is classed as cell-based, Pseudomonas aeruginosa. The method, then: (§1) In some examples, biofilm prevention and dissolution were measured via a high-throughput biofilm assay (MBEC Physiology and Genetics Assay) consisting of a 96-well plate into which a 96-peg plastic lid fits. This lid also fits over a standard 96-well plate, which was subsequently used to test the efficacy of iron chelators. Inoculum was prepared by diluting (30-fold) a 1.0 McFarland suspension of P. aeruginosa PA14 in TSB. 150 μl, was dispensed into each of the 60 inner wells, while 200 μl, of sterile trypticase soy broth (TSB) was placed in each perimeter well. For dissolution experiments, plates were incubated at 37° C. for 24 h, and were transferred to an anaerobic chamber for 24 h at 37° C. in anaerobic TSB containing 50 mM KNO3. Biofilms were then exposed to conalbumin and/or Ferrozine® for 24 h. Each treatment was complemented with the addition of 80 μM ferrous ammonium sulfate. After treatment, lids were rinsed once in 50 mM HEPES, air dried for 10 min and quantified by crystal violet staining. For biofilm prevention, anaerobic inoculum was amended with conalbumin and/or Ferrozine®. Media was replaced every 24 h by transferring the MBEC lid to a sterile plate containing growth media+/− treatments, and biofilms were allowed to develop for 168 h. Biomass was quantified as described above. Biological triplicates and six technical replicates (n=18) were used for each treatment.

The test system of another experiment is P. aeruginosa. As to the kind of experiment: Planktonic growth rates with iron chelators. It is filed as cell-based, Pseudomonas aeruginosa.
The test system of experiment [2] is P. aeruginosa PA14 mature biofilms. Kind of experiment: MBEC assay, dissolution of mature biofilms. The conditions noted are these: 100 or 200 μM Ferrozine®; 24 h exposure. It is filed as cell-based, Pseudomonas aeruginosa. As to the method:
as §1

The subject of experiment [3] is P. aeruginosa PA14 Δphz mutant. As to the kind of experiment: Intracellular NADH/NAD^+ ratio in stationary phase cultures. The conditions noted are these: for Effect on intracellular NADH/NAD^+ ratios: stationary phase, 30 mM nitrate, pyocyanin in the micromolar range. The experiment is classed as cell-based, Pseudomonas aeruginosa.
Protocol: (A) Growth and pyocyanin production for wild type P. aeruginosa PA14 grown aerobically in 10 ml LB in 18×150 mM tubes. (B) NADH/NAD^+ ratios for cultures grown under the same conditions as those described in part (A). At 7 hours, pyocyanin production in the wild type cultures was visible by eye. 45 μM (half the expected final concentration) was added to the Δphz cultures to be tested for complementation, and 15 mM KNO3 was added to cultures to be tested for the effect of an additional electron acceptor. At 9 hours, pyocyanin in the wild type cultures had increased to near-maximum concentrations, so a second dose of pyocyanin or KNO3 was added to the appropriate cultures, for final concentrations of 90 μM and 30 mM, respectively. Water was added to negative controls. Eleven hours after inoculation, and 2 hours after the addition of the final dose of pyocyanin, NAD(H) was extracted and assayed for each culture. (C), NADH/NAD^+ ratios for cultures treated as in part (B), but with varying concentrations of pyocyanin added. (D) NADH and NAD^+ concentrations for cultures described in (B), normalized to OD (500 nm). Error bars represent the standard deviations of triplicate samples. OD, optical density. wt, wild type.
Two×1 ml of culture were sampled into two separate microcentrifuge tubes and centrifuged at 16,000×g for 1 min. Supernatant was removed and pellets were resuspended in 300 μl of 0.2 M NaOH (for NADH extraction) or 0.2 M HCl (for NAD^+ extraction). […] Supernatants were transferred to fresh tubes and stored at −80° C. until quantification.
A master reagent mix was prepared with 1× Bicine buffer (2.0 M, pH 8.0), 8× water, 1×80 mM EDTA, 2×100% EtOH, 2×4.2 mM thiazolyl blue (MTT), and 4×16.6 mM phenazine ethosulfate. […] The microtiter plate was incubated at 30° C., mixed by brief shaking, and read every 30-60 seconds for absorbance at 570 nm, which is the spectral peak of MTT that increases upon reduction. Slopes arising from plots of absorbance at 570 nm over time were generated for NADH and NAD^+ standards as well as all samples. […]
Experiment [4] deals with P. aeruginosa PA14 wild type. Kind of experiment: Swarming motility, wild type. The experiment is classed as cell-based, Pseudomonas aeruginosa. The conditions noted are these: 100 μM in the swarming agar. As to the method: (§2) FIG. 6. Δphz1/2 has increased swarming motility. Quantification of swarming motility. Images of three swarming plates for each strain or condition were captured, exported to Adobe Photoshop and the agar surface covered by the swarms was quantified using the Analysis Tools.
(§3) Swimming, swarming and twitching motilities were determined as previously described.

The subject of experiment [5] is P. aeruginosa PA14 Δphz1/2. Kind of experiment: Swarming motility, Δphz1/2. It is filed as cell-based, Pseudomonas aeruginosa. Conditions: 100 μM in the swarming agar. The method, then:
as §2, §3

For experiment [6], the system named is P. aeruginosa PA14 wild-type colonies. Kind of experiment: Colony biofilm morphology, wild type. Conditions: 0.2 M of either compound added to the agar. The experiment is classed as cell-based, Pseudomonas aeruginosa. The method, then: FIG. 8. […] Each day colonies from three independent experiments were scanned and their surface coverage was determined. Representative images of colonies at day 2, 4 and 6 are shown (A; scale bar is 1 cm). The data in (B) show the average surface coverage and standard deviation for the three independent experiments. (C) Phenazine titrations. […] Surface coverage of colonies from three independent experiments was determined after incubation at 20° C. for 7 days. Bars indicate the standard deviation.
Colony biofilms were grown on agar containing 1% tryptone as previously described. Three colonies from independent spottings were documented for 8 days using an Epson scanner.

The test system of experiment [7] is P. aeruginosa PA14 Δphz1/2 colonies. Kind of experiment: Colony biofilm morphology and surface coverage, Δphz1/2. It is filed as cell-based, Pseudomonas aeruginosa. Conditions: for Effect on rugosity and surface coverage of colonies: 0.2 M of either compound added to the agar.
For experiment [8], the system named is P. aeruginosa PA14 phenazine null strain (Δphz). As to the kind of experiment: Flow cell biofilm development, phenazine null strain, 1% TSB. The conditions noted are these: 10 μM PCA in the medium flow of the Δphz mutant; by day 6.
Experiment [9] has as its system P. aeruginosa PA14 wild type. Kind of experiment: Flow cell biofilm development, wild type, 1% TSB with or without conalbumin. Conditions: wild type; for Rescue of the conalbumin-induced biofilm defect: 10 μM phenazine added to conalbumin-treated 1% TSB, 6 days.
The subject of experiment [10] is P. aeruginosa PA14 Δphz mutant. Kind of experiment: Pyruvate excretion, HPLC of culture filtrates. Conditions: 50 μM pyocyanin added to the Δphz mutant upon entry into stationary phase. The experiment is classed as cell-based, Pseudomonas aeruginosa. As to the method: FIG. 13. Wild type P. aeruginosa PA14 excretes pyruvate in stationary phase, and addition of pyocyanin to Δphz mutant cultures restores the pyruvate excretion phenotype. Cultures were inoculated into MOPS synthetic medium amended with 50 mM glucose (initial OD (500 nm)=0.03). To complement pyruvate excretion, 50 μM pyocyanin was added to the Δphz culture at the time when pyocyanin reached its maximum concentration in the wild type cultures (approximately 12 hours after inoculation). 20 μl of culture filtrates at the 24-hour time point were loaded onto an anion exchange column and subjected to an isocratic gradient in 5 mM H2SO4. Pyruvate peaks (1305, 1310) are indicated by arrows. The elution time of pyruvate drifts slightly but averages around 10.5 minutes. Results shown are representative of three separate experiments. Other peak identities are described in the text.
Two hundred μl were sampled from MOPS-glucose cultures (10 ml in an 18×150 mm test tube) at regular intervals and filtered (0.2 μm pore). In cases where repeated sampling from the same culture would alter the total culture volume by more than 10%, multiple identical cultures were inoculated from the same pre-culture and sampled sequentially. […] Compounds were detected by UV absorbance at 210 nm. Absolute concentrations of pyruvate were calculated using a standard curve for pyruvate diluted in MOPS buffer. […]

In experiment [11] the test system is P. aeruginosa PA14 siderophore null strain (ΔpvdAΔpchE). Kind of experiment: Flow cell biofilm development, siderophore null strain, 1% TSB. Conditions: 10 μM PYO.
Experiment [12] deals with Pseudomonas aeruginosa genes/operons. Kind of experiment: DNA microarrays and quantitative RT-PCR. It is filed as cell-based. The conditions noted are these: P. aeruginosa PA14. An excerpt: Strikingly, mexGHI-opmD and PA2274 were previously shown to be regulated by the PA14 quorum sensing network that controls the production of virulence factors (including phenazines). Through mutational analysis, it is shown that pyocyanin is the physiological signal for the upregulation of these quorum sensing controlled genes during stationary phase and that the response is mediated by the transcription factor SoxR. Our results implicate phenazines as signaling molecules in both P. aeruginosa PA14 and PAO1. Examples are shown in the paper: Dietrich et al. 2006, The phenazine pyocyanin is a terminal signaling factor in the quorum sensing network of Pseudomonas aeruginosa, Molecular Microbiology Vol. 61, No. 5, page 1308-1321, incorporated herein by reference in its entirety.

Experiment [13] concerns P. aeruginosa PA14 Δphz1/2. Kind of experiment: Flow cell biofilms in 10% LB, COMSTAT analysis. It is filed as cell-based, Pseudomonas aeruginosa. The method, then: Flow cell biofilms were grown under constant flow at 22° C. in 1.5×4×34 mm flow cells. Continuous flow of 10% LB was supplied with a peristaltic pump at a constant rate of […]. An early stationary-phase culture was diluted to an optical density at 500 nm of around 0.1 and 300 μl were inoculated into the flow cell. Strains expressing eyfp constitutively were used to visualize the biofilms. Upon inoculation, cells were allowed to attach in the absence of flow for 1.5 h before flow was resumed. Developing biofilms were imaged in 3 dimensions using a Leica confocal microscope. eYFP was excited with a 488 nm laser beam kept at constant intensity throughout the experiment, and emission from 510 to 618 nm was collected. Routinely, the Applicant observed that the distribution of bacterial cells throughout the colonized surface varied depending on the region of the flow cell, probably due to factors such as flow or accumulation of planktonic cells. To assure reproducibility, all images were acquired from an area set in the middle of the flow cell. Three images of duplicate flow cell lines were recorded and at least two independent experiments were performed.
To measure the impact of phenazines on biofilm formation directly, a flow cell system was first used to grow wild-type and Δphz1/2 biofilms. In this system, the wild type formed heterogeneous biofilms that after 4 days developed large and abundant microcolonies (FIG. 7A). Biofilms of Δphz1/2 were flatter and consisted of fewer and smaller aggregates scattered throughout the field of view (FIG. 7B). The morphology of 4-day-old biofilms was analyzed using COMSTAT. A fixed threshold value and connected volume filtration were used for all image stacks. Table 6 summarizes the values calculated for mean biofilm thickness, substratum coverage, number of microcolonies at the substratum, surface-to-volume ratio and maximum biofilm thickness for three independent experiments. […] PCA was not tested under these conditions. The mean thickness, the number of microcolonies and the total biomass volume all increased, reaching numbers similar or even higher than those observed for the wild type (Table 6).

Setting [14] is: 4 day-old biofilms, Δphz1/2, 25 μM pyocyanin.

For `O.O=S(=O)([O-])c1ccc(-c2nc(-c3ccccn3)nnc2-c2ccc(S(=O)(=O)O)cc2)cc1.[Na+]` [Ferrozine®, 3-(2-Pyridyl)-5,6-diphenyl-1,2,4-triazine-p,p′-disulfonic acid monosodium salt hydrate], the “Reduction of biofilm accumulation” value is 24% in experiment [1] (100 μM Ferrozine®, ˜10 μM Fe(II) and 10 μM Fe(III) present); “reduced it slightly further” in experiment [1] (200 μM Ferrozine®). Further, in the experiment with P. aeruginosa, the “Effect on planktonic growth rates” value is reported as “Neither compound affected planktonic growth rates”. In experiment [2], the “Dissolution of mature biofilm” value is listed as roughly 20%.

As to `O=[N+]([O-])[O-].[K+]` [Nitrate, KNO3], the “Effect on intracellular NADH/NAD^+ ratios” value in [3] is given as “effected decreases in intracellular NADH/NAD^+ ratios”.

Turning to `O=C(O)c1cccc2nc3ccccc3nc12` [PCA, Phenazine-1-carboxylic acid], the “Effect on swarming motility” value is on record as “had no effect on the wild type” in experiment [4] and “significantly decreased the motility of the Δphz1/2 mutant” in experiment [5]. The “Effect on the structure of colonies” value in [6] was “did not noticeably affect the structure of wild-type colonies”. Further, the “Effect on surface coverage of colonies” value in experiment [7] (0.1M PCA, titration) is “sufficient to decrease surface coverage of Δphz1/2 colonies to wild-type levels”; in experiment [7] (higher concentrations of PCA (up to 0.4M)), “had no additional effects”. Besides, the “Effect on rugosity and surface coverage of colonies” value in experiment [7] is “significantly decreased rugosity and surface coverage of Δphz1/2 colonies”. In addition, the “Increase of biofilm biomass” value in experiment [8] is “four times”. The “Rescue of the conalbumin-induced biofilm defect” value in experiment [9] is “rescued the defect”. For the same compound, in [9] (PCA added to conalbumin-treated medium, day 6), the “Increase of biofilm biomass compared to biofilms treated with conalbumin alone” value came to 13 factor. The “Wild type biofilm development with PCA added to the control medium” value in experiment [9] (no conalbumin) was “developed similarly with respect to structure and biomass regardless of whether PCA was added”.

For the compound `Cn1c2cccc(=O)c-2nc2ccccc21` [PYO, Pyocyanin], in experiment [10], the Pyruvate excretion phenotype entry is “complemented the pyruvate excretion phenotype”. Besides, the “Rescue without Fe(OH)3(s) relative to rescue with Fe(OH)3(s) addition” value in experiment [11] came out at 2 times. Moreover, in experiment [3] (90 μM oxidized pyocyanin added to Δphz mutant cultures), the “Effect on NADH/NAD^+ ratio” value was “reduced the NADH/NAD^+ ratio to the wild type level”. Also, in experiment [3], the “Effect on intracellular NADH/NAD^+ ratios” value is on record as “effected decreases in intracellular NADH/NAD^+ ratios”. Besides, the “Effect on swarming motility” value in [4] was “had no inhibitory effect on swarming of either the wild type or Δphz1/2”. Besides, in [5], the “Effect on swarming motility” value is “had no inhibitory effect on swarming of either the wild type or Δphz1/2”. Besides, in [6], the “Effect on the structure of colonies” value is given as “did not noticeably affect the structure of wild-type colonies”. Besides, in experiment [7] (0.1 M pyocyanin), the “Increased surface coverage compared to wild-type colonies” value is given as 50%. Further, the “Effect on rugosity and surface coverage of colonies” value in experiment [7] is “significantly decreased rugosity and surface coverage of Δphz1/2 colonies”. The “Agar surface covered more than wild-type colonies” value in experiment [7] (pyocyanin 0.2M or higher) was 35%. The “Effect on gene expression” value in experiment [12] is “elicits the upregulation of genes/operons that function in transport; also recorded: downregulates genes involved in ferric iron acquisition”. Further, the “Rescue of the conalbumin-induced biofilm defect” value in experiment [9] is “did not rescue the conalbumin-induced biofilm defect”. Further, the “Effect on Δphz1/2 flow cell biofilms” value in [13] (25 μM pyocyanin) is “larger microcolonies and thicker biofilms resulted”. Moreover, in experiment [13] (setting [14]), the “% Coverage at substratum” value was determined as 15.2 ± 2.46%, the Average colony volume is 8170 μm^3, the “Average size of colonies at substratum” value is listed as 102.6 ± 31 μm^2 and the Average thickness is on record as 5.6 ± 1.6. Also, in [13] (setting [14]), the Maximum thickness is recorded as 57.5 ± 1.9, the Roughness coefficient is recorded as 1.3 and the “Surface to volume ratio” value is listed as 6.6 ± 0.6 μm^2/μm^3. In experiment [13] (4 day-old biofilms, Δphz1/2, 25 μM pyocyanin in the medium from the beginning), the “Total biomass” value was 4.3 ± 1 μm^3/μm^2. The same compound had a Number of microcolonies in [13] (4 day-old biofilms, Δphz1/2, 25 μM pyocyanin, minimum microcolony size at the substratum 10 μm^2) of 8 ± 1.5.
